# From patent publication US4772459A, “Method for controlling emesis caused by chemotherapeutic agents and antiemetic agents useful therein” (priority 1986, dated 1988)
# Structures can show the parent of a compound that is named as a salt.
# Experiments:
# Dacarbazine Emesis = type: in vivo, beagle dogs; conditions: 1.0 mg/kg IV × 2, dog; dacarbazine 10 mg/kg i.v.; protected if 2 or less emetic events in 5 h
# Procedure: Mature beagle dogs (7-16 kg) were used in these experiments. The animals were individually caged with water available ad libitum. Each dog was offered 300 g of Purina Dog Chow the day of an experiment. Drug (mg base/kg) or carrier (0.9% saline; 0.2 ml/kg) was administered intravenously 30 minutes before and 120 minutes after intravenous bolus administration of 10 mg/kg dacarbazine (10 mg DTIC/ml saline; Miles Pharmaceuticals). […] If the animal suffered 2 or less emetic events, the animal was considered protected.
# Catalepsy = type: in vivo, Sprague Dawley rats (female); conditions: 20 mg/kg i.v., rat, tested one and two hours later
# Procedure: Female Sprague Dawley rats (Harlen Industries, Indianapolis, Ind.), weighing 160-225 g, were used. The animals (n=6) were injected intravenously with drug (20 mg/kg) or carrier (saline; 2 ml/kg) and were tested one and two hours later. This involved placing the front paws of the rat on a horizontal metal bar suspended 10 cm above the table top and recording the number of seconds, to a maximum of 60, that the animal remains in this position. Each animal was tested three times in succession and the average time the animal remained on the bar was calculated. Student's non-paired "t" test was employed to determine the significance of differences between the control and treated groups.
# Apomorphine Emesis = type: in vivo, beagle dogs; conditions: dog, apomorphine HCl 0.1 mg/kg s.c., protected if no emetic events in 1 h
# Procedure: Mature beagle dogs, individually caged and weighing 10.6-14.5 kg, were used in these experiments. The animals were fed just before being dosed intravenously with drug (mg base/kg) or carrier (0.9% saline; 0.2 ml/kg). Each animal received 0.1 mg/kg apomorphine hydrochloride (1 mg/ml saline; Lilly) subcutaneously thirty minutes after administration of the test compound. […] If the animal had no emetic events, the animal was considered protected.
# striatal DOPAC = test: Dopamine Turnover: striatal DOPAC response; type: in vivo, Sprague Dawley rats (male); conditions: rat; for Response of striatal DOPAC, percent change from control: intravenous
# Procedure: Male Sprague Dawley rats were injected intravenously with various doses of test compound and whole brain was removed at a predetermined time after dosing. The striatum was dissected from the brain, homogenized in a buffer/organic solvent mixture, clarified with a centrifuge, and an aliquot of the supernatant analyzed for 3,4-dihydroxyphenylacetic acid (DOPAC) by high performance liquid chromatography coupled with an electrochemical detector. The results are expressed as the percent change from control. The standard deviation of the data generally required a difference of 18% from control to be statistically significant at the 0.05 level as determined by the Student's "t" test. DOPAC is a metabolite of dopamine.
# Cisplatin Emesis = type: in vivo, Beagle dogs; conditions: for ED50: Canis lupus familiaris, iv, dog, drug i.v. 30 min before and 120 min after 3 mg/kg cisplatin i.v., blocked if 2 or less emetic events in 5 h
# Procedure: Mature Beagle dogs of either sex, weighing 7-16 kg, were individually caged with water available ad libitum. Each animal was offered 300 g of Purina Dog Chow the day of an experiment. Drug in varying doses or carrier was administered intravenously 30 minutes before and 120 minutes after intravenous bolus administration of 3 mg/kg cisplatin (Ben Venue Laboratories, Inc., Bedford, Ohio). […] Emesis was considered blocked if the animal suffered 2 or less emetic events. Based upon these observations, ED50 values were determined for each of the compounds tested.
# Apomorphine Climbing = type: in vivo, ICR-Swiss mice (male); conditions: for ED50: ip, 0.5 h, mouse, dose yielding climbing index of 100, apomorphine HCl 1 mg/kg s.c. 30 min after drug, read-out: Apomorphine Climbing 50% ED
# Procedure: Male ICR-Swiss mice (Harlan Industries, Indianapolis, Ind.), weighing 25-29 g, were placed in 8×10×16 cm wire cages. After a 1 to 1.5 hour acclimatization period, drug or carrier was administered intraperitoneally. Apomorphine hydrochloride (Lilly; 1 mg/kg) or carrier (saline, 10.0 ml/kg) was administered subcutaneously 30 minutes after test compound administration. Climbing behavior was assessed 20 minutes after apomorphine injection using the following scoring system:
# (0) 4 paws on the floor of the cage
# (1) 1, 2, or 3 paws grasping a side of the cage
# (2) 4 paws grasping a side of the cage.
# Climbing indexes were calculated using the formula: [formula] 50% ED values (i.e., the dose of drug which yields a climbing index of 100) were calculated using regression equations.
# [1] = very high dosages, beginning prior to cisplatin and continuing through post administration; cited from earlier work
SMILES,Dacarbazine-induced emesis: Number Protected/Number Dosed (Dacarbazine Emesis),Catalepsy (Catalepsy; hydrochloride),Apomorphine-induced emesis: Number Protected/Number Dosed (Apomorphine Emesis; 4.0 mg/kg IV),"Response of striatal DOPAC, percent change from control (striatal DOPAC; 0.3 mg/kg) [%]","Response of striatal DOPAC, percent change from control (striatal DOPAC; 1.0 mg/kg) [%]","Response of striatal DOPAC, percent change from control (striatal DOPAC; 3.3 mg/kg) [%]","Response of striatal DOPAC, percent change from control (striatal DOPAC; 10 mg/kg) [%]","Response of striatal DOPAC, percent change from control (striatal DOPAC; 33 mg/kg) [%]",ED50 (Cisplatin Emesis) [mg/kg],ED50 (Apomorphine Climbing) [mg/kg],Catalepsy (Catalepsy),Apomorphine-induced emesis: Number Protected/Number Dosed (Apomorphine Emesis; 1.0 mg/kg IV),Apomorphine-induced emesis: Number Protected/Number Dosed (Apomorphine Emesis; 2.0 mg/kg IV),effect on emesis caused by cisplatin (in words) [1],Apomorphine-induced emesis: Number Protected/Number Dosed (Apomorphine Emesis; 0.125 mg/kg IV),"Response of striatal DOPAC, percent change from control (striatal DOPAC; 0.1 mg/kg) [%]","dopamine antagonism suggested by Table 1 (in words) (striatal DOPAC; striatal DOPAC, i.v.)",cisplatin antiemetic activity (in words) (Cisplatin Emesis; data in Table 2),dopamine antagonist activity from Table 2 (in words) (Apomorphine Climbing; apomorphine climbing and catalepsy data)
"Nc1cc2c(c(C(=O)NC[C@@H]3CCCN3)c1)OCC2 [Compound 2, (L)-5-amino-N--(2-pyrrolidinylmethyl)-2,3-dihydrobenzo[b]furan-7-carboxamide hydrochloride]",4/4,No,0/4,0.0,-6.5,-17.3,0.0,-10.7,~1.75,100,–,–,–,–,–,–,–,–,–
"CCN1CCCC1CNC(=O)c1cc(Cl)c(N)cc1OC (centres unmarked) [Compound C-4, 4-amino-5-chloro-2-methoxy-N--(1-ethyl-2-pyrrolidinylmethyl)benzamide]",–,–,–,–,–,–,–,–,1,0.44,Yes,–,–,–,–,–,–,–,–
"Nc1c(Cl)cc(C(=O)NC[C@@H]2CCCN2)c2c1CCO2 [Compound 3, (L)-4-amino-5-chloro-N--(2-pyrrolidinylmethyl)-2,3-dihydrobenzo[b]furan-7-carboxamide hydrochloride]",4/4,No,0/4,-14.4,-10.0,-6.2,-2.7,6.4,~0.42,75,–,0/4,0/4,–,–,–,–,–,–
"CCN1CCCC1CNC(=O)c1cc(N)cc2c1OCC2 (centres unmarked) [Compound C-2, 5-amino-N--(1-ethyl-2-pyrrolidinylmethyl)-2,3-dihydrobenzo[b]furan-7-carboxamide hydrochloride]",–,–,–,–,–,–,–,–,2.5,10.4,No,–,–,–,–,–,–,–,–
"COc1cc(N)c(Cl)cc1C(=O)NC[C@@H]1CCCN1 [Compound 4, (L)-4-amino-5-chloro-2-methoxy-N--(2-pyrrolidinylmethyl)benzamide hydrochloride]",–,No,–,-1.9,-3.3,-3.7,13.7,41.6,1,44.5,–,0/4,–,–,–,–,–,–,–
"CCN1CCCC1CNC(=O)c1cc(Cl)c(N)c2c1OCC2 (centres unmarked) [Compound C-3, 4-amino-5-chloro-N--(1-ethyl-2-pyrrolidinylmethyl)-2,3-dihydrobenzo[b]furan-7-carboxamide fumarate]",–,–,–,–,–,–,–,–,0.7,1.5,Yes,–,–,–,–,–,–,–,–
"CCN(CC)CCNC(=O)c1cc(Cl)c(N)cc1OC [Metoclopramide, metoclopramide, reference compound]",3/4,–,–,12.4,81.2,192.0,384.6,–,1.1,1.7,–,4/4,–,effective in alleviating emesis caused by cisplatin,2/4,1.2,exhibits strong dopamine antagonism at doses of 1.0 mg/kg and greater,effective antiemetics,strong dopamine antagonists
"O=C(NC[C@@H]1CCCN1)c1cc(Cl)cc2c1OCC2 [Compound 1, (L)-5-chloro-N--(2-pyrrolidinylmethyl)-2,3-dihydrobenzo[b]furan-7-carboxamide hydrochloride]",4/4,No,–,-11.6,-0.6,-2.5,91.8,255.4,0.6,36.2,–,0/2,2/2,–,–,–,–,–,–
"CCN1CCCC1CNC(=O)c1cc(Cl)cc2c1OCC2 (centres unmarked) [Compound C-1, 5-chloro-N--(1-ethyl-2-pyrrolidinylmethyl)-2,3-dihydrobenzo[b]furan-7-carboxamide hydrochloride]",–,–,–,–,–,–,–,–,1,0.91,Yes,–,–,–,–,–,–,–,–
